# In patent US20080051454A1, “Compositions and methods for transient receptor potential vanilloid (TRPV) channel mediated treatments” (The Board of Trustees Operating Michigan State University, priority 2006, published 2008):
# Legend:
# [1] = test system: mesenteric arteries; assay: NADA-induced CGRP release from isolated mesenteric arteries (radioimmunoassay); parameters: species or system rat; details: CAPZ 10 μM pretreatment, NADA 10 μM; NS or HS
# Protocol: After an 1 h stabilization period, the arteries were transferred to another chamber containing 1 ml of Krebs's solution with the addition of 0.05% BSA and drugs including NADA (1 or 10 μM) or CAPZ (10 μM). The tissues were removed after 20 min incubation, and the solutions were collected and evaporated. […] At the end of the experiment, the tissues were blotted and weighted. […] The results are expressed as pg of milligram of tissues.
# This antibody has 100% cross-reactivity with rat a-CGRP and 79% with β-CGRP. There is no cross-reactivity with rat amylin, calcitonin, somatostatin, or substance P. The assay was performed following the manufacturer's protocol.
# [2] = test system: hearts of WT mice; assay: Langendorff perfused heart, ischemia and reperfusion (I/R) with OLDA, wild type; parameters: species or system mouse; details: antagonist 1×10^−6 M
# Protocol: The following measurements were made on the two types of heart tissue: left ventricular end-diastolic pressure (LVEDP), left ventricular developed pressure (LVDP), coronary flow (CF), and left ventricular (LV) peak positive rate of pressure change/rate of time change (+dP/dt) were evaluated after I/R.
# [3] = test system: WT and TRPV1−/− hearts; assay: OLDA-induced CGRP and SP release from hearts (radioimmunoassay); parameters: species or system mouse
# [4] = test system: mesenteric arteries; assay: MethA-induced CGRP release from isolated mesenteric arteries (radioimmunoassay); parameters: species or system rat; details: CAPZ 10 μM, MethA 10 μM; NS or HS
# Protocol: The arteries were dissected free of fat and connective tissues.
# The preparations were incubated in a Krebs' solution of the following compositions (in mM): NaCl 119, NaHCO3 25, KH2PO4 1.2, MgSO4 1.5, CaCl2 2.5, KCl 4.7, and D-glucose 11. The Krebs' solution was maintained at 37 °C and gassed with 95% O2 and 5% CO2. After 1 h stabilization period, the arteries were transferred to another chamber containing 1 ml of Krebs' solution with the addition of 0.05% BSA and drugs. […] The tissues were removed after 20 min incubation, and the solutions were collected. At the end of the experiment, the tissues were blotted and weighted.
# This antibody has 100% cross-reactivity with rat α-CGRP and 79% with rat β-CGRP. There is no cross-reactivity with rat amylin, calcitonin, somatostatin, or substance P.
# [5] = test system: TRPV1−/− hearts; assay: Preconditioning (PC) protection against I/R in Langendorff hearts with receptor antagonists, TRPV1-null; parameters: species or system mouse; details: CAPZ 10^−7 M, CGRP8-37 10^−6 M, RP67580 10^−7 M
# Protocol: Male TRPV1 gene knockout (TRPV1-/-) strain B6.129S[…][…]^tm1Jul and matching control wild type (WT) strain C57BL/6J mice were used (Jackson Laboratory, Bar Harbor, Me.). Mice were heparinized (500 U/kg i.p.) and anesthetized with pentobarbital sodium (50 mg/kg i.p.). […] The distal end of the catheter was connected to a […] Performance Analyzer via a pressure transducer. Coronary flow (CF) was continuously measured using an ultrasonic flow probe placed in the aortic perfusion line. Hearts were paced at 400 bpm except during ischemic PC and sustained global ischemia to avoid inducing excessive ventricular tachyarrhythmia during reperfusion, and pacing was reinitiated 2 minutes after reperfusion. Left ventricular developed pressure (LVDP, peak systolic minuses LVEDP) and LV peak positive […]) during isovolumic contraction were used as indices of LV systolic function; LVEDP and the peak negative […] used as indices of LV diastolic function. […] Non-preconditioned hearts were time-matched perfused with the same duration as that of preconditioned hearts. Group 1: Controls. As normal controls (nonischemic), WT and TRPV1-/- hearts were perfused for 130 minutes. For I/R controls, WT and TRPV1-/- hearts were first perfused with Krebs-Henseleit buffer for 55 min (time-matched perfusion of the equilibration period plus the PC period), and subsequently subjected to 30 minutes of no-flow normothermic global ischemia followed by 40-minutes of reperfusion. Group 2: PC. […] The hearts were subjected to 30 minutes of no-flow normothermic global ischemia followed by 40-minutes of reperfusion as that of I/R control groups. Group 3: PC plus capsazepine (CAPZ). […] Two additional concentrations of CAPZ, 10^-6M and 10^-8 M, were used in WT hearts. An additional drug control was added. After a 20-minute equilibration period, WT hearts were perfused with CAPZ (10^-7 M) for 10 minutes without PC, followed by perfusion with Krebs-Henseleit buffer for 25 minutes (time-matched perfusion of the PC period) and then subjected to I/R. Group 4: […] […]
# [6] = test system: WT and TRPV1−/− hearts; assay: SP and CGRP release from hearts subjected to PC (radioimmunoassay); parameters: species or system mouse; details: CAPZ 10^−6 M; in WT but not TRPV1−/− hearts
# Protocol: Additional WT and TRPV1−/−hearts were treated the same as that of the PC group except that CAPZ (10^−6 M) was added to the solution. In the normal control group, WT and TRPV1−/−hearts were treated the same as that of the PC group except no deprivation of oxygen and glucose. The samples were purified and analyzed by radioimmunoassay. The assay was performed as recommended by the supplier. Commercially available rat CGRP and SP radioimmunoassay kits (Peninsula Laboratories Inc.) were used for determination of SP and CGRP release which was normalized by the heart weight.
# [7] = test system: WT hearts; assay: Lactate dehydrogenase (LDH) release during I/R; parameters: species or system mouse
# Protocol: Lactate dehydrogenase (LDH) release: In addition to the measurement of cardiac function, cardiac injury was assessed by measuring LDH release. Perfusion effluent was collected during the first 10 minutes to 20 minutes of I/R and stored at […] until analyzed. Total LDH levels were determined with the use of a CytoTox 96 assay (Promega). The data were expressed as absorbance units released per milliliter per minute per gram of heart wet tissues (Turnbull et al., Am J Physiol Heart Circ Physiol 290: […]-9, 2006; herein incorporated by reference).
# [8] = test system: rats fed either a high or normal sodium diet; details: cited from earlier work
smiles,measurement,setting,value
"Oc1cc2c(cc1O)CN(C(=S)NCCc1ccc(Cl)cc1)CCC2 [CAPZ, N-[2-(4-Chlorophenyl)ethyl]-1,3,4,5-tetrahydro-7,8-dihydroxy-2H-2-benzazepine-2-carbothioamide]",effect on NADA-induced CGRP release,[1],blocked
same,effect on protective effect of OLDA in WT hearts,[2],abolished
same,effect on OLDA-increased CGRP and SP release in WT hearts,[3],blocked
same,effect on MethA-induced CGRP release,[4],blocked
same,effect on these parameters in TRPV1−/− hearts,[5],no effect
same,CGRP release from hearts subjected to PC,[6],attenuated
same,SP release from hearts subjected to PC,[6],attenuated
same,effect on PC protection assessed by LDH levels after I/R in WT hearts,[7],abolished
same,effect on capsaicin actions on plasma CGRP and MAP,"[8]; rat, in vivo",blocked
same,pro-hypertensive effects of salt,[8]; rats fed a high salt diet,unmasked
